Earlier results as cited in patent US20230285278A1, “METHODS FOR TREATING CHRONIC RHINOSINUSITIS” (OptiNose, Inc., priority 2022, published 2023).
Read-outs that look alike come from different tables or passages of the source.

Solubility (in 96% ethanol): slightly soluble | Solubility (in acetone): sparingly soluble | Solubility (in dichloromethane): sparingly soluble | Solubility (in dimethylformamide): freely soluble | Solubility (in water): practically insoluble
SMILES: CCC(=O)O[C@]1(C(=O)SCF)[C@H](C)C[C@H]2[C@@H]3C[C@H](F)C4=CC(=O)C=C[C@]4(C)[C@@]3(F)[C@@H](O)C[C@@]21C [Fluticasone propionate, S-(fluoromethyl) 6α,9-difluoro-11β,17-dihydroxy-16α-methyl-3oxoandrosta-1,4-diene-17β-carbothioate, 17-propionate]
